The results in this text go back to US7964607B2, “Pyrazolo[3,4-d]pyrimidine compounds” (Pfizer Inc., priority 2007, dated 2011).

What is called IC50 is the concentration that inhibits the measured activity by half.

In the first assay the target is T1, human recombinant PDE9 enzyme (Homo sapiens, UniProt O76083).
T1 construct: made in house; host or cells: SF-9 insect cells
T1 sequence (O76083 whole entry): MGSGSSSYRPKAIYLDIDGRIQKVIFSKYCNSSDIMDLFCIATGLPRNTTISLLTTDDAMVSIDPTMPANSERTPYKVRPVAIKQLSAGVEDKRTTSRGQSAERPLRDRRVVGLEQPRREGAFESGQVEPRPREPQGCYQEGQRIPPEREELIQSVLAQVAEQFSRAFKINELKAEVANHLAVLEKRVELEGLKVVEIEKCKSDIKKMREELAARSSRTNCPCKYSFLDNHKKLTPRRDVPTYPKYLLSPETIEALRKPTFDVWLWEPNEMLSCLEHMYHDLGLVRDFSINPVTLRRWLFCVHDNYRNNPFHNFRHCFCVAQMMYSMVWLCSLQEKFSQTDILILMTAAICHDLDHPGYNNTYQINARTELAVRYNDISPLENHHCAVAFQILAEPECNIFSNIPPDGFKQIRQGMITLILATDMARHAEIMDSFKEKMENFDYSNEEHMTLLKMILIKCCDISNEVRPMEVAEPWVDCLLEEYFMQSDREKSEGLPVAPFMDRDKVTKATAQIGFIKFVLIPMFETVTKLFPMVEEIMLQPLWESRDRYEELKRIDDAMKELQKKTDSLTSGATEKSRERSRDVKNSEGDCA
Description: Phosphodiesterase 9 (PDE9) inhibitory activity, Scintillation Proximity (SPA) assay. The format is biochemical. Conditions: human recombinant PDE9 from SF-9 cells; 50 nM [3H]cGMP; room temperature, 30 min; Examples 3-114; read-out: G5678A (U): IC50. The method, boiled down:
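Scintillation proximity read-out of [3H]cGMP hydrolysis after 30 min at room temperature, with enzyme addition starting the reaction. The enzyme was human recombinant PDE9 expressed in SF-9 cells, titrated to keep substrate turnover at 20% or less. Compound wells held 2% DMSO final, and background was defined with excess PDE inhibitor.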
(In a scintillation proximity assay essentially only radioactivity close to the scintillant gives light.)
For `C[C@@H]1CN(Cc2nc3ccccc3n2C)C[C@H]1c1nc2c(cnn2C2CCCC2)c(=O)[nH]1` [Example 49, 1-cyclopentyl-6-{(3S,4S)-4-methyl-1-[(1-methyl-1H-benzimidazol-2-yl)methyl]pyrrolidin-3-yl}-1,5-dihydro-4H-pyrazolo[3,4-d]pyrimidin-4-one], the IC50 worked out at 4.55 nM.
`CC[C@@H]1CN(Cc2cccc(C#N)c2)C[C@H]1c1nc2c(cnn2C2CCOCC2)c(=O)[nH]1` [Example 113, 3-({(3S,4S)-3-ethyl-4-[4-oxo-1-(tetrahydro-2H-pyran-4-yl)-4,5-dihydro-1H-pyrazolo[3,4-d]pyrimidin-6-yl]pyrrolidin-1-yl}methyl)benzonitrile]: the IC50 is less than 1 nM.
In the case of `COc1ccc(CN2C[C@@H](C)[C@H](c3nc4c(cnn4C4CCCC4)c(=O)[nH]3)C2)cn1` (racemic) [Example 25, 1-cyclopentyl-6-{(3,4-trans)-1-[(6-methoxypyridin-3-yl)methyl]-4-methylpyrrolidin-3-yl}-1,5-dihydro-4H-pyrazolo[3,4-d]pyrimidin-4-one], the IC50 amounted to 9.07 nM.
Consider `COc1ccc2nccc(CN3C[C@@H](C)[C@H](c4nc5c(cnn5C(C)C)c(=O)[nH]4)C3)c2c1` (racemic) [Example 71, 1-isopropyl-6-{(y)-1-[(6-methoxyquinolin-4-yl)methyl]-4-methylpyrrolidin-3-yl}-1,5-dihydro-4H-pyrazolo[3,4-d]pyrimidin-4-one], for which the IC50 amounted to 16.1 nM.
Take `Cc1nn(C2CCOCC2)c2nc([C@@H]3CN(Cc4cccnc4)C[C@H]3C)[nH]c(=O)c12` [Example 92, 3-methyl-6-[(3S,4S)-4-methyl-1-(pyridin-3-ylmethyl)pyrrolidin-3-yl]-1-(tetrahydro-2H-pyran-4-yl)-1,5-dihydro-4H-pyrazolo[3,4-d]pyrimidin-4-one]: the 50% inhibitory concentration (IC50) amounted to 23.3 nM.
For the compound `CC(C)n1ncc2c(=O)[nH]c([C@@H]3CN(Cc4ccnc5ncccc45)C[C@H]3C)nc21` [Example 66], the IC50 was 18.1 nM.
On the same count and under the same terms, the same measure for `C[C@@H]1CN(c2ncccn2)C[C@H]1c1nc2c(cnn2C2CCCC2)c(=O)[nH]1` (racemic) [Example 5, 1-cyclopentyl-6-[(3,4-trans)-4-methyl-1-pyrimidin-2-ylpyrrolidin-3-yl]-1,5-dihydro-4H-pyrazolo[3,4-d]pyrimidin-4-one]: 558 nM; for `C[C@@H]1CN(Cc2cccc3cccnc23)C[C@H]1c1nc2c(cnn2C2CCCC2)c(=O)[nH]1` (racemic) [Example 18, 1-cyclopentyl-6-[(3,4-trans)-4-methyl-1-(quinolin-8-ylmethyl)pyrrolidin-3-yl]-1,5-dihydro-4H-pyrazolo[3,4-d]pyrimidin-4-one]: 8.26 nM.
On to `C[C@@H]1CN(Cc2cnc3ccccc3n2)C[C@H]1c1nc2c(cnn2C2CCCC2)c(=O)[nH]1` (racemic) [Example 12, 1-cyclopentyl-6-[(3,4-trans)-4-methyl-1-(quinoxalin-2-ylmethyl)pyrrolidin-3-yl]-1,5-dihydro-4H-pyrazolo[3,4-d]pyrimidin-4-one], for which the IC50 came out at 7.23 nM.
Turning to `CC[C@@H]1CN(Cc2ccccc2C#N)C[C@H]1c1nc2c(cnn2C2CCOCC2)c(=O)[nH]1` [Example 112, 2-({(3S,4S)-3-ethyl-4-[4-oxo-1-(tetrahydro-2H-pyran-4-yl)-45-dihydro-1H-pyrazolo[3,4-d]pyrimidin-6-yl]pyrrolidin-1-yl}methyl)benzonitrile], the 50% inhibitory concentration (IC50) stood at 1.37 nM.
Regarding `C[C@@H]1CN(Cc2cnc3ccccc3c2)C[C@H]1c1nc2c(cnn2C2CCOCC2)c(=O)[nH]1` [Example 77, 6-[(3S,4S)-4-methyl-1-(quinolin-3-ylmethyl)pyrrolidin-3-yl]-1-(tetrahydro-2H-pyran-4-yl)-1,5-dihydro-4H-pyrazolo[3,4-d]pyrimidin-4-one], the IC50 came out at 1.24 nM.

The assay is the same for the next values; noted with them: human recombinant PDE9 from SF-9 cells; 50 nM [3H]cGMP; room temperature, 30 min; additional compounds Ex. 115-228; read-out: G5678A (U):IC50.
In the case of `COc1ccc(C)cc1CN1C[C@@H](C)[C@H](c2nc3c(cnn3C3CCCC3)c(=O)[nH]2)C1` (racemic) [Example 217, 1-cyclopentyl-6-[(3,4-trans)-1-(2-methoxy-5-methylbenzyl)-4-methylpyrrolidin-3-yl]-1,5-dihydro-4H-pyrazolo[3,4-d]pyrimidin-4-one], the half-inhibitory concentration (IC50) is 25 nM.
Consider `C[C@@H]1CN(Cc2c(F)cccc2Cl)C[C@H]1c1nc2c(cnn2C2CCCC2)c(=O)[nH]1` (racemic) [Example 117, 6-[(3,4-trans)-1-(2-chloro-6-fluorobenzyl)-4-methylpyrrolidin-3-yl]-1-cyclopentyl-1,5-dihydro-4H-pyrazolo[3,4-d]pyrimidin-4-one], for which the 50% inhibitory concentration (IC50) stood at 126 nM.
As for `Cc1ccc(C)c(CN2C[C@@H](C)[C@H](c3nc4c(cnn4C4CCCC4)c(=O)[nH]3)C2)c1` (racemic) [Example 162, 1-cyclopentyl-6-[(3,4-trans)-1-(2,5-dimethylbenzyl)-4-methylpyrrolidin-3-yl]-1,5-dihydro-4H-pyrazolo[3,4-d]pyrimidin-4-one], the half-inhibitory concentration (IC50) stood at 60.1 nM.
Same read-out and setting: the same measure for `Cc1ccccc1CN1C[C@@H](C)[C@H](c2nc3c(cnn3C3CCCC3)c(=O)[nH]2)C1` (relative stereo) [Example 180, 1-cyclopentyl-6-[(3,4-trans)-4-methyl-1-(2-methylbenzyl)pyrrolidin-3-yl]-1,5-dihydro-4H-pyrazolo[3,4-d]pyrimidin-4-one]: 83.8 nM.
On the same count and under the same terms, next, `Cc1c(F)cccc1CN1C[C@@H](C)[C@H](c2nc3c(cnn3C3CCCC3)c(=O)[nH]2)C1` (racemic) [Example 166, 1-cyclopentyl-6-[(3,4-trans)-1-(3-fluoro-2-methylbenzyl)-4-methylpyrrolidin-3-yl]-1,5-dihydro-4H-pyrazolo[3,4-d]pyrimidin-4-one]: 68.3 nM.
For the compound `C[C@@H]1CN(Cc2c(Cl)cccc2Cl)C[C@H]1c1nc2c(cnn2C2CCCC2)c(=O)[nH]1` (racemic) [Example 192, 1-cyclopentyl-6-[(3,4-trans)-1-(2,6-dichlorobenzyl)-4-methylpyrrolidin-3-yl]-1,5-dihydro-4H-pyrazolo[3,4-d]pyrimidin-4-one], the half-inhibitory concentration (IC50) is 236 nM.
Regarding `COc1cccc(CN2C[C@@H](C)[C@H](c3nc4c(cnn4C4CCCC4)c(=O)[nH]3)C2)c1` (racemic) [Example 204, 1-cyclopentyl-6-[(3,4-trans)-1-(3-methoxybenzyl)-4-methylpyrrolidin-3-yl]-1,5-dihydro-4H-pyrazolo[3,4-d]pyrimidin-4-one], the half-maximal inhibitory concentration (IC50) was 9.56 nM.
For the compound `Cc1nc(C)c(CN2C[C@@H](C)[C@H](c3nc4c(cnn4C4CCCC4)c(=O)[nH]3)C2)nc1C` (racemic) [Example 212, 1-cyclopentyl-6-{(3,4-trans)-4-methyl-1-[(3,5,6-trimethylpyrazin-2-yl)methyl]pyrrolidin-3-yl}-1,5-dihydro-4H-pyrazolo[3,4-d]pyrimidin-4-one], the IC50 came to 9.98 nM.
On to `Cc1ccn2c(CN3C[C@@H](C)[C@H](c4nc5c(cnn5C5CCCC5)c(=O)[nH]4)C3)c(C)nc2c1` (racemic) [Example 186, 1-cyclopentyl-6-{(3,4-trans)-1-[(2,7-dimethylimidazo[1,2-a]pyridin-3-yl)methyl]-4-methylpyrrolidin-3-yl}-1,5-dihydro-4H-pyrazolo[3,4-d]pyrimidin-4-one], for which the IC50 came to 155 nM.
Take `C[C@@H]1CN(Cc2ccc3c(c2)OCCO3)C[C@H]1c1nc2c(cnn2C2CCCC2)c(=O)[nH]1` (racemic) [Example 122, 1-cyclopentyl-6-[(3,4-trans)-1-(2-3-dihydro-1,4-benzodioxin-6-ylmethyl)-4-methylpyrrolidin-3-yl]-1,5-dihydro-4H-pyrazolo[3,4-d]pyrimidin-4-one]: the IC50 was 56.4 nM.
In the case of `C[C@@H]1CN(Cc2cc(Cl)ccc2Cl)C[C@H]1c1nc2c(cnn2C2CCCC2)c(=O)[nH]1` (racemic) [Example 124, 1-cyclopentyl-6-[(3,4-trans)-1-(2,5-dichlorobenzyl)-4-methylpyrrolidin-3-yl]-1,5-dihydro-4H-pyrazolo[3,4-d]pyrimidin-4-one], the IC50 turned out to be 80.9 nM.
Consider `C[C@@H]1CN(Cc2cccc(F)c2F)C[C@H]1c1nc2c(cnn2C2CCCC2)c(=O)[nH]1` (racemic) [Example 127, 1-cyclopentyl-6-[(3,4-trans)-1-(2,3-difluorobenzyl)-4-methylpyrrolidin-3-yl]-1,5-dihydro-4H-pyrazolo[3,4-d]pyrimidin-4-one], for which the IC50 is 61.7 nM.
`CCc1ncc(CN2C[C@@H](C)[C@H](c3nc4c(cnn4C4CCCC4)c(=O)[nH]3)C2)cn1` (racemic) [Example 168, 1-cyclopentyl-6-{(3,4-trans)-1-[(2-ethylpyrimidin-5-yl)methyl]-4-methylpyrrolidin-3-yl}-1,5-dihydro-4H-pyrazolo[3,4-d]pyrimidin-4-one]: the IC50 is 30.7 nM.
As for `C[C@@H]1CN(Cc2ccc(-n3ccnc3)cc2)C[C@H]1c1nc2c(cnn2C2CCCC2)c(=O)[nH]1` (racemic) [Example 123, 1-cyclopentyl-6-{(3,4-trans)-1-[4-(1H-imidazol-1-yl)benzyl]-4-methylpyrrolidin-3-yl}-1,5-dihydro-4H-pyrazolo[3,4-d]pyrimidin-4-one], the IC50 was determined as 39.3 nM.
Same read-out and setting: the same measure for `C[C@@H]1CN(Cc2ccccc2F)C[C@H]1c1nc2c(cnn2C2CCCC2)c(=O)[nH]1` (racemic) [Example 218, 1-cyclopentyl-6-[(3,4-trans)-1-(2-fluorobenzyl)-4-methylpyrrolidin-3-yl]-1,5-dihydro-4H-pyrazolo[3,4-d]pyrimidin-4-one]: 15.6 nM; for `C[C@@H]1CN(Cc2cccc(F)c2)C[C@H]1c1nc2c(cnn2C2CCCC2)c(=O)[nH]1` (racemic) [Example 215, 1-cyclopentyl-6-[(3,4-trans)-1-(3-fluorobenzyl)-4-methylpyrrolidin-3-yl]-1,5-dihydro-4H-pyrazolo[3,4-d]pyrimidin-4-one]: 11.5 nM.
